For series [1], the system named is Landrace pig bladder strips. The series can be described thus: In vitro functional model: field-stimulated bladder tissue strips. Conditions: dose dependent, concentration range 10^−9 to 10^−5 M, control agonist. As to the method: Compounds were evaluated for functional potassium channel opening activity using tissue strips obtained from Landrace pig bladders. Landrace pig bladders were obtained from female Landrace pigs of 9-30 kg. Landrace pigs were euthanized with an intraperitoneal injection of pentobarbital solution, Somlethal®, J. A. Webster Inc., Sterling Mass. The entire bladder was removed and immediately placed into Krebs Ringer bicarbonate solution (composition, mM: NaCl, 120; NaHCO3, 20; dextrose, 11; KCl, 4.7; CaCl2, 2.5; MgSO4, 1.5; KH2PO4, 1.2; K2EDTA, 0.01, equilibrated with 5% CO2/95% O2 pH 7.4 at 37° C.). Propranolol (0.004 mM) was included in all of the assays to block β-adrenoceptors. The trigonal and dome portions were discarded. Strips 3-5 mm wide and 20 mm long were prepared from the remaining tissue cut in a circular fashion. The mucosal layer was removed. One end was fixed to a stationary glass rod and the other to a Grass FT03 transducer at a basal preload of 1.0 gram. Two parallel platinum electrodes were included in the stationary glass rod to provide field stimulation of 0.05 Hz, 0.5 milli-seconds at 20 volts. […] The maximal efficacy of each compound (expressed as % relative to P1075) is reported. […] Agonist potencies were also expressed as an index relative to P1075. The index was calculated by dividing the ED50 for P1075 by the ED50 for the test agonist in a given tissue. […]

The term melting point denotes the temperature, or range, at which the solid turns liquid.

In turn, `CC(=O)Nc1c(C(O)(C(F)(F)F)C(F)(F)F)cc(Cl)c2ccccc12` [Example 9, N-[4-Chloro-2-(2,2,2-trifluoro-1-hydroxy-1-trifluoromethyl-ethyl)-naphthalen-1-yl]-acetamide] came in with a melting point of 161 to 162 °C.

In the case of `O=C(Nc1c(C(O)(C(F)(F)F)C(F)(F)F)ccc2ccccc12)c1ccno1` [Example 41, Isoxazole-5-carboxylic acid [2-(2,2,2-trifluoro-1-hydroxy-1-trifluoromethyl-ethyl)-naphthalen-1-yl]-amide], the melting point lay within 162 to 164 °C.

On to `CCC(C)(C)N=C(NC#N)Nc1cccnc1` [Example P1075], for which, in series [1], the “effect on stimulated twitch of bladder strips” value is “completely eliminated the stimulated twitch”.

The values are drawn from US20030199578A1, “Naphthalene amides as potassium channel openers” (priority 2002, published 2003).
